In PubChem BioAssay AID270 (DTP/NCI, 2004):
Values joined by “and” are separate entries in the source; they are usually repeats but may differ in a detail not shown here. Identical values can stand only once. Records with an inconclusive call do not appear.

Test system: BDF1 mice, s.c. Lewis lung carcinoma, T/C %
Assay: NCI In Vivo Anticancer Drug Screen. Data for tumor model Lewis Lung Carcinoma (subcutaneous) in B6D2F1 (BDF1) mice
How it was run: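 First, mice carry a transplantable tumor. Next, groups receive either compound or vehicle. Finally, survival or tumor dimensions in the dosed animals are divided by the corresponding control figure.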

Structure (SMILES): C=C1C(C)C2C(Cc3ccccc3)NC(=O)C23C(OC(C)=O)C=CC(C)(O)C(=O)C(C)C/C=C/C3C1O (stereo not given)
- T/C (endpoint: median survival time, dose: 0.31 mg/kg/injection, schedule: Q01DX009 (ip), vehicle: Klucel (hydroxypropylcellulose) (HPC), higher = longer survival): 121 % of control
- T/C (endpoint: median survival time, dose: 0.62 mg/kg/injection, schedule: Q01DX009 (ip), vehicle: Klucel (hydroxypropylcellulose) (HPC), higher = longer survival): 124 % of control
- T/C (endpoint: median survival time, dose: 1.25 mg/kg/injection, schedule: Q01DX009 (ip), vehicle: Klucel (hydroxypropylcellulose) (HPC), higher = longer survival): 110 % of control
- T/C (endpoint: median survival time, dose: 2.5 mg/kg/injection, schedule: Q01DX009 (ip), vehicle: Klucel (hydroxypropylcellulose) (HPC), higher = longer survival): 118 % of control
- T/C (endpoint: median survival time, dose: 5.0 mg/kg/injection, schedule: Q01DX009 (ip), vehicle: Klucel (hydroxypropylcellulose) (HPC), higher = longer survival): 109 % of control

Structure (SMILES): NC(=O)c1ncn(C2OC(CO)C(O)C2O)n1 (stereo not given)
- T/C (endpoint: median survival time, dose: 20.0 mg/kg/injection, schedule: Q01DX009 (ip), vehicle: saline, higher = longer survival): 100 % of control
- T/C (endpoint: median survival time, dose: 40.0 mg/kg/injection, schedule: Q01DX009 (ip), vehicle: saline, higher = longer survival): 93 % of control and 107 % of control
- T/C (endpoint: median survival time, dose: 80.0 mg/kg/injection, schedule: Q01DX009 (ip), vehicle: saline, higher = longer survival): 97 % of control and 107 % of control
- T/C (endpoint: median survival time, dose: 160.0 mg/kg/injection, schedule: Q01DX009 (ip), vehicle: saline, higher = longer survival): 118 % of control

Structure (SMILES): CC1(C)C(CC(=O)O)CC1C(=O)O (stereo not given)
- T/C (endpoint: mean tumor weight, dose: 166.0 mg/kg/injection, schedule: Q01DX011 (ip), vehicle: other, higher = larger tumour): 78 % of control

Structure (SMILES): CC(C)=CCC1=C(O)c2ccccc2C(=O)C1=O
- T/C (endpoint: mean tumor weight, dose: 45.0 mg/kg/injection, schedule: Q01DX011 (ip), vehicle: water, higher = larger tumour): 71 % of control
- T/C (endpoint: mean tumor weight, dose: 67.0 mg/kg/injection, schedule: Q01DX011 (ip), vehicle: water, higher = larger tumour): 85 % of control
- T/C (endpoint: mean tumor weight, dose: 100.0 mg/kg/injection, schedule: Q01DX011 (ip), vehicle: water, higher = larger tumour): 93 % of control

Structure (SMILES): CC[CH2][Pb]([CH2]CC)([CH2]CC)[O]C(=O)C(Cl)(Cl)Cl
- T/C (endpoint: median survival time, dose: 0.19 mg/kg/injection, schedule: Q01DX009 (ip), vehicle: saline with Tween-80, higher = longer survival): 101 % of control
- T/C (endpoint: median survival time, dose: 0.38 mg/kg/injection, schedule: Q01DX009 (ip), vehicle: saline with Tween-80, higher = longer survival): 94 % of control
- T/C (endpoint: median survival time, dose: 0.75 mg/kg/injection, schedule: Q01DX009 (ip), vehicle: saline with Tween-80, higher = longer survival): 90 % of control
- T/C (endpoint: median survival time, dose: 1.5 mg/kg/injection, schedule: Q01DX009 (ip), vehicle: saline with Tween-80, higher = longer survival): 103 % of control
- T/C (endpoint: median survival time, dose: 3.0 mg/kg/injection, schedule: Q01DX009 (ip), vehicle: saline with Tween-80, higher = longer survival): 106 % of control
- T/C (endpoint: median survival time, dose: 6.0 mg/kg/injection, schedule: Q01DX009 (ip), vehicle: saline with Tween-80, higher = longer survival): 106 % of control

Structure (SMILES): CC[C@]1(O)C[C@H]2CN(CCc3c([nH]c4ccccc34)[C@@](C(=O)OC)(c3cc4c(cc3OC)N(C=O)[C@H]3[C@@](O)(C(=O)OC)[C@H](OC(C)=O)[C@]5(CC)C=CCN6CC[C@]43[C@@H]65)C2)C1
- T/C (endpoint: mean survival time, dose: 0.5 mg/kg/injection, schedule: Q08DX002 (ip), vehicle: saline, higher = longer survival): 101 % of control
- T/C (endpoint: mean survival time, dose: 1.0 mg/kg/injection, schedule: Q08DX002 (ip), vehicle: saline, higher = longer survival): 104 % of control
- T/C (endpoint: mean survival time, dose: 1.5 mg/kg/injection, schedule: Q08DX002 (ip), vehicle: saline, higher = longer survival): 106 % of control
- T/C (endpoint: mean tumor weight, dose: 0.05 mg/kg/injection, schedule: Q01DX011 (ip), vehicle: saline, higher = larger tumour): 81 % of control
- T/C (endpoint: mean tumor weight, dose: 0.1 mg/kg/injection, schedule: Q01DX011 (ip), vehicle: saline, higher = larger tumour): 83 % of control
- T/C (endpoint: mean tumor weight, dose: 0.15 mg/kg/injection, schedule: Q01DX011 (ip), vehicle: saline, higher = larger tumour): 87 % of control and 101 % of control
- T/C (endpoint: mean tumor weight, dose: 0.22 mg/kg/injection, schedule: Q01DX011 (ip), vehicle: saline, higher = larger tumour): 88 % of control
- T/C (endpoint: mean tumor weight, dose: 0.5 mg/kg/injection, schedule: Q01DX011 (ip), vehicle: saline, higher = larger tumour): 59 % of control
- T/C (endpoint: mean tumor weight, dose: 62.5 micrograms/kg/injection, schedule: Q01DX011 (ip), vehicle: saline, higher = larger tumour): 59 % of control
- T/C (endpoint: mean tumor weight, dose: 125.0 micrograms/kg/injection, schedule: Q01DX011 (ip), vehicle: saline, higher = larger tumour): 80 % of control
- T/C (endpoint: mean tumor weight, dose: 250.0 micrograms/kg/injection, schedule: Q01DX011 (ip), vehicle: saline, higher = larger tumour): 59 % of control
- T/C (endpoint: median survival time, dose: 0.12 mg/kg/injection, schedule: Q01DX009 (ip), vehicle: saline, higher = longer survival): 116 % of control
- T/C (endpoint: median survival time, dose: 0.12 mg/kg/injection, schedule: Q04DX003 (ip), vehicle: saline, higher = longer survival): 104 % of control
- T/C (endpoint: median survival time, dose: 0.13 mg/kg/injection, schedule: Q01DX009 (ip), vehicle: saline, higher = longer survival): 100 % of control
- T/C (endpoint: median survival time, dose: 0.25 mg/kg/injection, schedule: Q01DX009 (ip), vehicle: saline, higher = longer survival): 108 % of control
- T/C (endpoint: median survival time, dose: 0.25 mg/kg/injection, schedule: Q04DX003 (ip), vehicle: saline, higher = longer survival): 108 % of control
- T/C (endpoint: median survival time, dose: 0.5 mg/kg/injection, schedule: Q01DX009 (ip), vehicle: saline, higher = longer survival): 108 % of control
- T/C (endpoint: median survival time, dose: 0.5 mg/kg/injection, schedule: Q04DX003 (ip), vehicle: saline, higher = longer survival): 88 % of control
- T/C (endpoint: median survival time, dose: 0.5 mg/kg/injection, schedule: Q08DX002 (ip), vehicle: saline, higher = longer survival): 104 % of control
- T/C (endpoint: median survival time, dose: 1.0 mg/kg/injection, schedule: Q04DX003 (ip), vehicle: saline, higher = longer survival): 93 % of control
- T/C (endpoint: median survival time, dose: 1.0 mg/kg/injection, schedule: Q08DX002 (ip), vehicle: saline, higher = longer survival): 104 % of control
- T/C (endpoint: median survival time, dose: 1.5 mg/kg/injection, schedule: Q08DX002 (ip), vehicle: saline, higher = longer survival): 108 % of control
- T/C (endpoint: median survival time, dose: 2.0 mg/kg/injection, schedule: Q04DX003 (ip), vehicle: saline, higher = longer survival): 53 % of control
- T/C (endpoint: median survival time, dose: 125.0 micrograms/kg/injection, schedule: Q01DX009 (ip), vehicle: saline, higher = longer survival): 88 % of control and 118 % of control
- T/C (endpoint: median survival time, dose: 250.0 micrograms/kg/injection, schedule: Q01DX009 (ip), vehicle: saline, higher = longer survival): 93 % of control
- T/C (endpoint: median survival time, dose: 500.0 micrograms/kg/injection, schedule: Q01DX009 (ip), vehicle: saline, higher = longer survival): 97 % of control
- T/C (endpoint: median tumor weight (est.), dose: 0.12 mg/kg/injection, schedule: Q01DX011 (ip), vehicle: saline, higher = larger tumour): 102 % of control
- T/C (endpoint: median tumor weight (est.), dose: 0.18 mg/kg/injection, schedule: Q01DX011 (ip), vehicle: saline, higher = larger tumour): 46 % of control
- T/C (endpoint: median tumor weight (est.), dose: 125.0 micrograms/kg/injection, schedule: Q01DX009 (ip), vehicle: saline, higher = larger tumour): 92 % of control
- T/C (endpoint: median tumor weight (est.), dose: 250.0 micrograms/kg/injection, schedule: Q01DX009 (ip), vehicle: saline, higher = larger tumour): 93 % of control
- T/C (endpoint: median tumor weight (est.), dose: 500.0 micrograms/kg/injection, schedule: Q01DX009 (ip), vehicle: saline, higher = larger tumour): 43 % of control
